Literature values in patent US8881894B2, “Multiple-compartment applicator” (Sonovia Holdings LLC, priority 2008, dated 2014).

Details: in water

SMILES: O=C1O[C@H]([C@@H](O)CO)C(O)=C1O [L-Ascorbic acid]
- pK of acid-ionizable hydrogen: 4.2
